{
  "source": "patent US20220387370A1",
  "about": "“METHODS OF REDUCING NEUROLOGICAL DAMAGE IN WILSON DISEASE PATIENTS” (priority 2019, published 2022)",
  "key": {"Atp7b^−/− rats": {"system": "Atp7b^−/− rats", "assay": "Chelator treatment of WD rats: copper in serum, urine and feces (ICP-OES)", "format": "in vivo, rat", "method": "Control Atp7b^+/- and WD Atp7b^-/- rats were fed ad libitum with normal chow (1314; 13.89 mg Cu/kg; Altromin Spezialfutter GmbH, […], Germany) and tap water. All rats were healthy at treatment start and presented no signs of acute liver damage (serum AST <200 U/L and serum bilirubin <0.5 mg/dl). […] Untreated Atp7b^+/- and Atp7b^-/- rats served as controls. Urine and feces were collected at 24-hour intervals for which rats were housed individually in metabolic cages for 4 days. After a two-day resting period off treatment in normal cages and group housing, rats were sacrificed for serum collection."}, "[1]": {"system": "HepG2, EA.hy926, U87MG and SHSY5Y cells", "assay": "Cu-albumin cell toxicity, CellTiter-Glo, all investigated cell lines", "format": "cell-based, human", "method": "(§1) SHSY5Y (human neuroblastoma), U87MG (human astrocytoma), EA.hy926 (human endothelium) and HepG2 (human hepatocellular carcinoma) cells were from ATCC (Wesel, Germany) and were cultured in Dulbecco's Modified Eagle Medium (DMEM) supplemented with 10% FCS (Biochrom, Berlin, Germany) and 1% antibiotic-antimycotic (Life Technologies, Carlsbad, USA). All cells were maintained at 37° C. in a humidified atmosphere with 5% CO2."}, "HepG2 cells [2]": {"system": "HepG2 cells", "assay": "Cu-albumin cell toxicity, CellTiter-Glo, HepG2", "format": "cell-based, human", "conditions": "HepG2, 750 μM chelator", "method": "as §1"}, "EA.hy926 cells [3]": {"system": "EA.hy926 cells", "assay": "Cu-albumin cell toxicity, CellTiter-Glo, EA.hy926", "format": "cell-based, human", "conditions": "EA.hy926, 750 μM chelator", "method": "as §1"}, "[4]": {"system": "HepG2, EA.hy926, U87MG and SHSY5Y cells", "assay": "Toxicity of the chelator itself in a copper-free setting, CellTiter-Glo", "method": "as §1"}, "[5]": {"system": "HepG2, EA.hy926, U87MG and SHSY5Y cells", "assay": "Cellular copper content (ICP-OES), all cell lines", "format": "cell-based, human", "conditions": "750 μM copper, 250 μM albumin, 750 μM chelator, 24 h; vs Cu-albumin alone", "source_text": "(§2) Afterwards, cells were trypsinized and counted."}, "EA.hy926 cells [6]": {"system": "EA.hy926 cells", "assay": "Cellular copper content (ICP-OES), EA.hy926", "format": "cell-based, human", "conditions": "EA.hy926; 750 μM copper, 250 μM albumin, 750 μM chelator; vs Cu-albumin alone", "source_text": "as §2"}, "HepG2 cells [7]": {"system": "HepG2 cells", "assay": "Cellular copper content (ICP-OES), HepG2", "format": "cell-based, human", "conditions": "750 μM copper, 250 μM albumin, 750 μM chelator, vs Cu-albumin alone", "source_text": "as §2"}, "SHSY5Y cells": {"system": "SHSY5Y cells", "assay": "Cellular copper content (ICP-OES), SHSY5Y", "format": "cell-based, human", "conditions": "750 μM copper, 250 μM albumin, 750 μM chelator, vs Cu-albumin alone", "source_text": "as §2"}, "EA.hy926 and U87MG cells": {"system": "EA.hy926 and U87MG cells", "assay": "Electron microscopy of mitochondrial structure", "format": "cell-based, human", "conditions": "electron micrographs, co-treatment with chelator", "source_text": "Electron microscopy of cells was done as previously described ([…]., et al., Cell Mol Gastroenterol Hepatol, 2018. 7(3): p. 571-596) on a 1200EX electron microscope (JEOL, […], Japan) at 60 kv. Pictures were taken with a […] digital camera (Olympus, Hamburg, Germany) and processed by the iTEM software package (analySIS FIVE, Olympus, Hamburg, Germany)."}, "PBCEC monolayers [8]": {"system": "PBCEC monolayers", "assay": "TEER and capacitance of PBCEC monolayers (endothelial blood-brain barrier model)", "format": "cell-based, porcine", "source_text": "(§3) For transepithelial resistance (TEER) experiments (Srinivasan, B., et al., J Lab Autom, 2015. 20(2): p. 107-26), cryopreserved primary porcine brain capillary endothelial cells (PBCECs) were thawed and seeded either on rat tail collagen-coated 96-well plates for cytotoxicity testing using the Neutral red assay (Repetto, G., A. del Peso, and J. L. Zurita, Nat Protoc, 2008. 3(7): p. 1125-31) or Transwell® inserts (area: 1.12 cm^2, pore size: 0.4 μm: Corning, N.Y., USA) for barrier integrity studies. Cells were cultured for 48 hours in Earle's Medium 199 supplemented with 10% FCS, 50 U penicillin/mL, 50 μg/mL streptomycin, 100 μg/mL gentamycin and 0.7 mM I-glutamine and maintained at 37° C. in a humidified atmosphere with 5% CO2. […] TEER and capacitance values were continuously monitored over 48 h using a CellZscope device (nanoAnalytics, Münster, Germany). Only PBCEC monolayers with initial TEER values >600Ωcm^2 and capacitance values between 0.45 and 0.6 μF/cm^2 were used for permeability studies (Bornhorst, J., et al., J Biol Chem, 2012. 287(21): p. 17140-51). The barrier integrity was calculated by normalizing the TEER values to the respective start values."}, "PBCEC monolayers [9]": {"system": "PBCEC monolayers", "assay": "Copper in the basolateral compartment of the Transwell PBCEC model (ICP-MS/MS)", "format": "cell-based, porcine", "conditions": "250 μM copper and 83.3 μM albumin, 250 μM chelator, after 48 h", "source_text": "as §3"}, "[10]": {"system": "tight junction protein claudin-5", "assay": "Immunocytochemistry staining of claudin-5 in PBCEC monolayers", "format": "cell-based, porcine", "conditions": "250 μM copper and 83.3 μM albumin, 250 μM chelator", "method": "Total copper was determined by ICP-MS/MS as previously described (Kopp, J. F., et al., J Trace Elem Med Biol, 2019. 54: p. 221-225). For the immunocytochemical staining of tight junction proteins, confluent PBCECs cultivated on Transwell® membrane inserts were processed as previously described ([…]., et al., Archives of Toxicology 2018. 92(2): p. 823-832). Briefly, PBCECs were fixed with formaldehyde and permeabilized using Triton X-100. After blocking of unspecific binding sites by albumin, the cells were incubated with the either anti-claudin 5 or anti-ZO-1 antibody (Zytomed Systems GmbH, Berlin, Germany). Following a second blocking step, the cells were treated with an Alexa Fluor® 488 conjugated secondary antibody (Invitrogen, Molecular Probes Inc., Eugene, USA). Hoechst 33258 (Merck, Darmstadt, Germany) was used to stain cell nuclei. Subsequently, membranes were cut out of the inserts and mounted in Aqua Poly/Mount (Polysciences Inc., Washington, USA). After a solidification period of 24 hours, the samples were evaluated using a DM6 B fluorescence microscope by Leica Microsystems CMS GmbH (Wetzlar, Germany) in combination with the Leica Application Suite X."}, "PBCEC monolayers [11]": {"system": "PBCEC monolayers", "assay": "Electron microscopy of tight junctions of PBCECs", "format": "cell-based, porcine", "conditions": "copper-treated PBCECs, electron micrographs", "method": "Electron microscopy of PBCECS grown on Transwell® inserts was performed as previously described (Ye, D., K. A. Dawson, and I. Lynch, Analyst, 2015. 140(1): p. 83-97) with minor modifications. Briefly, after fixation with 2.5% glutaraldehyde, cell monolayers were post-fixed with 1% osmium tetroxide for 30 min and dehydrated by ethanol."}, "[12]": {"system": "HepG2, EA.hy926, U87MG and SHSY5Y cells", "conditions": "750 μM copper, 250 μM albumin, 750 μM chelator", "procedure": "2×10^4 cells were seeded into each well of a 96-well plate and incubated overnight. […] Cell toxicity was either determined by CellTiter-Glo® assay (Promega, Madison, USA) or Trypan blue exclusion test.\nAfterwards, cells were trypsinized and counted. Cell viability was determined by Trypan blue exclusion test."}, "[13]": {"conditions": "in vivo; cited from earlier work"}, "neurologic WD patients": {"system": "neurologic WD patients", "conditions": "cited from earlier work"}, "[14]": {"conditions": "unit inferred; read-out: Kd (copper affinity); cited from earlier work"}},
  "note": "pKd: −log10 of the molar value. Entries after “also recorded” stand apart in the source; their conditions may differ. Like-named read-outs stand apart in the source and are kept apart here.",
  "data": [
    {"smiles": "CC(C)(S)[C@@H](N)C(=O)O", "note": "[DPA, (2S)-2-amino-3-methyl-3-sulfanylbutanoic acid, reference compound]", "values": [
      {"measurement": "fecal copper excretion", "setting": "Atp7b^−/− rats; during treatment", "result": "unchanged"},
      {"measurement": "urinary copper excretion", "setting": "Atp7b^−/− rats; during treatment, urine collected over 24 h", "result": "significantly increased; also recorded: significant increase"},
      {"measurement": "serum copper levels", "setting": "Atp7b^−/− rats; i.p. once daily for 4 consecutive days (ALXN1840 2.5 mg/kg bw, DPA 100 mg/kg bw), serum at sacrifice after resting period", "result": "elevated blood copper was not observed"},
      {"measurement": "share of net copper intake found in the urine", "setting": "Atp7b^−/− rats; upon DPA treatment, total net uptake 3.95 μmol/24 h", "result": 10, "unit": "%"},
      {"measurement": "copper found in the urine", "setting": "Atp7b^−/− rats; upon DPA treatment, unpublished observation", "result": 0.4, "unit": "μmol/24 h"},
      {"measurement": "CellTiterGlo-assessed cell viability / Cu-albumin toxicity", "setting": "[1]; 750 μM chelator, 250 μM albumin, copper 250 to 2500 μM, 24 h", "result": "much less effective; also recorded: not significantly increased"},
      {"measurement": "CellTiterGlo-assessed cell viability / Cu-albumin toxicity", "setting": "[1]; low dose of chelator (250 μM)", "result": "no effect on cell viability"},
      {"measurement": "CellTiterGlo-assessed cell viability / Cu-albumin toxicity", "setting": "HepG2 cells [2]", "result": "modest rescuing effect"},
      {"measurement": "CellTiterGlo-assessed cell viability / Cu-albumin toxicity", "setting": "EA.hy926 cells [3]", "result": "completely absent"},
      {"measurement": "non-toxic concentrations", "setting": "[4]; copper-free setting", "result": "up to 2 mM"},
      {"measurement": "CellTiterGlo-assessed cell viability with chelator alone", "setting": "[4]; without external Cu-albumin addition", "result": "not observed"},
      {"measurement": "cellular copper content", "setting": "[5]", "result": "in none of the cell lines a significant de-coppering was noted; also recorded: did not change the amount of copper uptake"},
      {"measurement": "cellular copper content", "setting": "EA.hy926 cells [6]", "result": "tendentiously lower copper content"},
      {"measurement": "cellular copper content", "setting": "HepG2 cells [7]", "result": "highly similar cellular copper contents"},
      {"measurement": "cellular copper content", "setting": "SHSY5Y cells", "result": "tendentiously lower copper content"},
      {"measurement": "Cu-albumin-induced alterations of mitochondrial structure", "setting": "EA.hy926 and U87MG cells", "result": "no/minor effect; also recorded: no positive effect"},
      {"measurement": "transepithelial electrical resistance (TEER)", "setting": "PBCEC monolayers [8]; 250 μM copper and 83.3 μM albumin, 250 μM chelator, 48 h", "result": "not able to prevent the copper-induced TEER loss; also recorded: reduction of the TEER comparable to Cu-albumin treatment alone"},
      {"measurement": "capacitance values", "setting": "PBCEC monolayers [8]; Cu-albumin treatment in the absence or presence of chelator", "result": "unaffected"},
      {"measurement": "copper in the basolateral compartment (copper influx)", "setting": "PBCEC monolayers [9]", "result": "could not be avoided"},
      {"measurement": "claudin-5 staining pattern / copper-induced gap formation", "setting": "[10]", "result": "could not prevent copper-induced gap formation; also recorded: did not prevent copper-induced gap formation"},
      {"measurement": "loss of electron-dense protein complexes at the cell-cell borders", "setting": "PBCEC monolayers [11]", "result": "not protected and not"},
      {"measurement": "Trypan blue-assessed cell viability / copper-related cell toxicity", "setting": "[12]", "result": "could not be avoided"},
      {"measurement": "blood peak after application", "setting": "[13]", "result": "1 to 3", "unit": "h"},
      {"measurement": "patients with dramatic symptom worsening", "setting": "neurologic WD patients; shortly upon treatment onset", "result": "19-52%"},
      {"measurement": "neurological worsening", "setting": "neurologic WD patients; treated patients", "result": "frequently occur"}
    ]},
    {"smiles": "[SH-].[SH-].[S]=[Mo]=[S]", "note": "[TTM, tetrathiomolybdate]", "values": [
      {"measurement": "neurological worsening", "setting": "neurologic WD patients; human, in vivo", "result": "hardly reported"}
    ]},
    {"smiles": "N[C@@H](Cc1c[nH]cn1)C(=O)O", "note": "[histidine]", "values": [
      {"measurement": "pKd", "setting": "[14]", "result": "~9.00"}
    ]}
  ]
}
